In patent US20240294551A1 (AMGEN INC., priority 2022, published 2024):

Experiments:
[1] = molecular target: His-tagged KRAS G12D protein (Homo sapiens (Human), UniProt P01116, G12D); experiment: KRAS G12D TR-FRET Assay; type: binding; conditions: read-out: KRAS G12D Binding IC50
Procedure: Compounds of interest were prepared in a dose-response titration in DMSO, and 80 nL were added via Labcyte Echo to each well of a 384-well plate (Perkin Elmer 6008280). The His-tagged KRAS G12D protein (Amgen) was diluted to 20 nM in Assay Buffer (20 mM HEPES, pH 7.4, 10 mM MgCl2, 50 mM NaCl, 0.1% BSA, 0.01% Tween-20, 10 μM GDP) and 2 μL was added to the appropriate wells of the 384-well plate. The plate was incubated for 30 minutes at room temperature. Biotinylated KRPep-2d substrate (Amgen) was diluted to 20 nM in Assay Buffer and 2 μL was added to all wells and incubated for 1 hour at room temperature. Detection Reagent (0.4 nM LANCE Eu-W1024 Anti-6×His (Perkin Elmer AD0401), 5 nM streptavidin-d2 (Cisbio 610SADLA)) was prepared in Assay Buffer, then 4 μL was added to the plate and incubated for 1 hour at room temperature. Plates were read using PerkinElmer EnVision (ex: 320 nm, em1: 665 nm, em2: 615 nm) and em1/em2 data was used to generate curve fits using a 4-parameter logistic model to calculate IC50 values.

[2] = molecular target: GDP-bound KRAS protein (aa 1-169), containing both G12D and C118A amino acid substitutions (Homo sapiens (Human), UniProt P01116, C118A/G12D); experiment: KRAS G12D Coupled Nucleotide Exchange Assay; type: biochemical; conditions: read-out: KRAS G12D Coupled Exchange IC50
Procedure: KRAS G12D Coupled Nucleotide Exchange Assay
Following compound pre-incubation, purified SOS protein (aa 564-1049) and GTP (Roche 10106399001) were added to the assay wells and incubated for an additional 30 min. To determine the extent of inhibition of SOS-mediated nucleotide exchange, purified GST-tagged cRAF (aa 1-149), nickel chelate AlphaLISA acceptor beads (PerkinElmer AL108R), and AlphaScreen glutathione donor beads (PerkinElmer 6765302) were added to the assay wells and incubated for 10 minutes. The assay plates were then read on a PerkinElmer EnVision Multilabel Reader, using AlphaScreen® technology, and data were analyzed using a 4-parameter logistic model to calculate IC50 values.

Sequence of His-tagged KRAS G12D protein (P01116 other isoform, or with tags, fused parts or gaps G12D): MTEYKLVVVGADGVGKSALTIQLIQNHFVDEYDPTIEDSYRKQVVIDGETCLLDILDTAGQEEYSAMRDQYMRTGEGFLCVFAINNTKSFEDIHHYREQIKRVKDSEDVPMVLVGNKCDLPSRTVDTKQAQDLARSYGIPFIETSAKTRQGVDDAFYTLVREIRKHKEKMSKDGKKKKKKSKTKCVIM
Sequence of GDP-bound KRAS protein (aa 1-169), containing both G12D and C118A amino acid substitutions (P01116 other isoform, or with tags, fused parts or gaps G12D/C118A): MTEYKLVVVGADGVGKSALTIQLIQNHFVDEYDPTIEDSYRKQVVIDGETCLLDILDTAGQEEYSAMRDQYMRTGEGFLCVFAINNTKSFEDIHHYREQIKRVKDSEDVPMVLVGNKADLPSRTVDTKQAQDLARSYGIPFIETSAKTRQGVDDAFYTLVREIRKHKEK

SMILES: Cc1cc2[nH]ncc2c2c1CCCCO[C@H](C)[C@@H]1CN(CCO1)c1nc(OC[C@@]34CCCN3C[C@H](F)C4)nc3c(F)c-2ncc13 [Example 243, (16R,17S)-30-fluoro-24-(((2R,7aS)-2-fluorotetrahydro-1H-pyrrolo[1,2-a]pyrrol-7a(5H)-yl)methoxy)-9,16-dimethyl-15,18-dioxa-5,6,21,23,25,29-hexaazahexacyclo[24.3.1.1~17,21~.0~2,10~.0~3,7~.0~22,27~]hentriaconta-1(30),2,4,7,9,22,24,26,28-nonaene]
- IC50 [1]: 4480 nM
- IC50 [2]: 4070 nM

SMILES: O=C1CCCCc2c(Cl)cc3[nH]ncc3c2-c2ncc3c(nc(OC[C@@]45CCCN4C[C@H](F)C5)nc3c2F)N2C[C@H](O)C[C@@H](C2)N1 (racemic) [Example 276, (17S,19R)-9-chloro-30-fluoro-24-(((2R,7aS)-2-fluorotetrahydro-1H-pyrrolo[1,2-a]pyrrol-7a(5H)-yl)methoxy)-19-hydroxy-5,6,16,21,23,25,29-heptaazahexacyclo[24.3.1.1~17,21~.0~2,10~.0~3,7~.0~22,27~]hentriaconta-1(30),2,4,7,9,22,24,26,28-nonaen-15-one]
- IC50 [1]: 498 nM
- IC50 [2]: 153 nM

SMILES: O=C1OCCCc2c(Cl)cc3[nH]ncc3c2-c2ncc3c(nc(OC[C@@]45CCCN4C[C@H](F)C5)nc3c2F)N2CC[C@@H]3CCN1[C@@H]3C2 [Example 176, (28R,32S)-18-chloro-33-fluoro-4-(((2R,7aS)-2-fluorotetrahydro-1H-pyrrolo[1,2-a]pyrrol-7a(5H)-yl)methoxy)-23-oxa-1,3,5,9,14,15,25-heptaazaheptacyclo[23.5.2.1~6,10~.0~2,7~.0~11,19~.0~12,16~.0~28,32~]tritriaconta-2,4,6,8,10(33),11,13,16,18-nonaen-24-one]
- IC50 [1]: 287 nM
- IC50 [2]: 179 nM

SMILES: O[C@H]1c2ncc(o2)CCc2c(Cl)cc3[nH]ncc3c2-c2ncc3c(nc(OC[C@@]45CCCN4C[C@H](F)C5)nc3c2F)N2CCC[C@@H]1C2 [Example 234]
- IC50 [1]: 77 nM
- IC50 [2]: 9 nM

SMILES: Fc1c2ncc3c(nc(OC[C@@]45CCCN4C[C@H](F)C5)nc13)N1CCC[C@H](C1)Cn1cc(nn1)CCc1c(Cl)cc3[nH]ncc3c1-2 [Example 146]
- IC50 [1]: 77 nM
- IC50 [2]: 65 nM

SMILES: Fc1c2ncc3c(nc(OC[C@@]45CCCN4C[C@H](F)C5)nc13)N1CCCC[C@@H](C1)c1cnn(n1)CCCc1c(Cl)cc3[nH]ncc3c1-2 [Example 295, (1S)-10-chloro-33-fluoro-24-(((2R,7aS)-2-fluorotetrahydro-1H-pyrrolo[1,2-a]pyrrol-7a(5H)-yl)methoxy)-4,5,13,14,19,23,25,27,34-nonaazaheptacyclo[25.4.1.1~2,5~.1~18,22~.0~9,17~.0~12,16~.0~21,26~]tetratriaconta-2(34),3,9,11,14,16,18(33),19,21,23,25-undecaene]
- IC50 [1]: 2250 nM
- IC50 [2]: 1080 nM

SMILES: CN1CCC[C@H]1COc1nc2c3cnc(c(F)c3n1)-c1c(c(Cl)cc3[nH]ncc13)CCCOC(=O)O[C@@]1(CF)COCCN2C1 [Example 337, (26R)-18-chloro-32-fluoro-26-(fluoromethyl)-4-(((2S)-1-methyl-2-pyrrolidinyl)methoxy)-23,25,28-trioxa-1,3,5,9,14,15-hexaazahexacyclo[24.4.1.1~6,10~.0~2,7~.0~11,19~.0~12,16~]dotriaconta-2,4,6,8,10(32),11,13,16,18-nonaen-24-one]
- IC50 [1]: 2440 nM
- IC50 [2]: 790 nM

SMILES: O=C1N[C@@H]2CN(C[C@@H]3C[C@@H]32)c2nc(OC[C@@]34CCCN3C[C@H](F)C4)nc3c(F)c(ncc23)-c2c(c(Cl)cc3[nH]ncc23)CCC[C@H]1F [Example 172, (23R,26S,27S,29R)-18-chloro-23,32-difluoro-4-(((2R,7aS)-2-fluorotetrahydro-1H-pyrrolo[1,2-a]pyrrol-7a(5H)-yl)methoxy)-1,3,5,9,14,15,25-heptaazaheptacyclo[24.4.1.1~6,10~.0~2,7~.0~11,19~.0~12,16~.0~27,29~]dotriaconta-2,4,6,8,10(32),11,13,16,18-nonaen-24-one]
- IC50 [1]: 1770 nM
- IC50 [2]: 1030 nM

SMILES: O=C1CCCCc2c(Cl)cccc2-c2ncc3c(nc(OC[C@@]45CCCN4C[C@H](F)C5)nc3c2F)N2CC[C@@H]3CCN1[C@@H]3C2 [Example 163, (25R,29S)-15-chloro-30-fluoro-4-(((2R,7aS)-2-fluorotetrahydro-1H-pyrrolo[1,2-a]pyrrol-7a(5H)-yl)methoxy)-1,3,5,9,22-pentaazahexacyclo[20.5.2.1~6,10~.0~2,7~.0~11,16~.0~25,29~]triaconta-2,4,6,8,10(30),11,13,15-octaen-21-one]
- IC50 [1]: 2840 nM
- IC50 [2]: 1570 nM

SMILES: Cc1cc2[nH]ncc2c2c1CCOC(=O)O[C@H]1C[C@@]3(CCCN(C3)c3nc(OC[C@@H]4CCCN4C)nc4c(F)c-2ncc34)C1 (single isomer, unassigned) [Example 325]
- IC50 [1]: 99 nM
- IC50 [2]: 65 nM

SMILES: Fc1c2ncc3c(nc(OC[C@@]45CCCN4C[C@H](F)C5)nc13)N1CCOC[C@@H](C1)c1cnn(n1)CCCc1c(Cl)cc3[nH]ncc3c1-2 [Example 297, (1S)-10-chloro-33-fluoro-24-(((2R,7aS)-2-fluorotetrahydro-1H-pyrrolo[1,2-a]pyrrol-7a(5H)-yl)methoxy)-30-oxa-4,5,13,14,19,23,25,27,34-nonaazaheptacyclo[25.4.1.1~2,5~.1~18,22~.0~9,17~.0~12,16~.0~21,26~]tetratriaconta-2(34),3,9,11,14,16,18(33),19,21,23,25-undecaene]
- IC50 [1]: 8070 nM
- IC50 [2]: 5980 nM

SMILES: Cc1cc2[nH]ncc2c2c1CCCCC(=O)N[C@@H]1CN(C[C@@H]3C[C@@H]31)c1nc(OC[C@@]34CCCN3C[C@H](F)C4)nc3c(F)c-2ncc13 [Example 170, (26S,27S,29R)-32-fluoro-4-(((2R,7aS)-2-fluorotetrahydro-1H-pyrrolo[1,2-a]pyrrol-7a(5H)-yl)methoxy)-18-methyl-1,3,5,9,14,15,25-heptaazaheptacyclo[24.4.1.1~6,10~.0~2,7~.0~11,19~.0~12,16~.0~27,29~]dotriaconta-2,4,6,8,10(32),11,13,16,18-nonaen-24-one]
- IC50 [1]: 2490 nM
- IC50 [2]: 1540 nM

SMILES: [2H]C([2H])([2H])[C@]12COCCN(C1)c1nc(OC[C@@]34CCCN3C[C@H](F)C4)nc3c(F)c(ncc13)-c1c(c(C)cc3[nH]ncc13)CCCOC(=O)O2 [Example 351, (26R)-32-fluoro-4-(((2R,7aS)-2-fluorotetrahydro-1H-pyrrolo[1,2-a]pyrrol-7a(5H)-yl)methoxy)-18-methyl-26-(~2~H_3_)methyl-23,25,28-trioxa-1,3,5,9,14,15-hexaazahexacyclo[24.4.1.1~6,10~.0~2,7~.0~11,19~.0~12,16~]dotriaconta-2,4,6,8,10(32),11,13,16,18-nonaen-24-one]
- IC50 [2]: 149 nM

SMILES: [2H]C([2H])([2H])[C@]12COCCN(C1)c1nc(OC[C@@]34CCCN3C[C@H](F)C4)nc3c(F)c(ncc13)-c1c(c(Cl)cc3[nH]ncc13)CCCOC(=O)O2 [Example 354, (26R)-18-chloro-32-fluoro-4-(((2R,7aS)-2-fluorotetrahydro-1H-pyrrolo[1,2-a]pyrrol-7a(5H)-yl)methoxy)-26-(~2~H_3_)methyl-23,25,28-trioxa-1,3,5,9,14,15-hexaazahexacyclo[24.4.1.1~6,10~.0~2,7~.0~11,19~.0~12,16~]dotriaconta-2,4,6(32),7,9,11,13,16,18-nonaen-24-one]
- IC50 [2]: 531 nM
